These results are taken from US8569295B2, “Bicyclic urea compounds” (Merck Patent GmbH, priority 2009, dated 2013).

One may read the IC50 as the concentration at which inhibition is half-maximal.

Each structure is given as a SMILES string. Some results are limits rather than exact numbers.

For this experiment, the target named is T1, GST-Aurora A (Homo sapiens, UniProt O14965).
T1 construct: N-terminal GST fusion with full length Aurora A (1-403 amino acids); purchased Carna Biosciences 05-101
T1 sequence (O14965 1-403): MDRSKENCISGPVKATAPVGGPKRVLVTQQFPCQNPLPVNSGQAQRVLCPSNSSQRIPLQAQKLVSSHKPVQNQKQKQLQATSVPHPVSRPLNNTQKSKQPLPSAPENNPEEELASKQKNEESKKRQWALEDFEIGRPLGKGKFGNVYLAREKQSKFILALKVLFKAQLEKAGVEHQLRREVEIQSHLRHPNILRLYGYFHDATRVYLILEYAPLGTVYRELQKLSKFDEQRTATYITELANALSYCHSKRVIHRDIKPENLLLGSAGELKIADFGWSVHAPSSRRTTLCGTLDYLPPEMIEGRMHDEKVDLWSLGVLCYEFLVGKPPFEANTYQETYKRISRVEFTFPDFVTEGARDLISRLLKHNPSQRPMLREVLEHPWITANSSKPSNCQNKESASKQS
As to the kind of experiment: Aurora A kinase biochemical mobility shift assay (Caliper LC3000 / Desktop Profiler). To be noted: AK A (Aurora kinase A) inhibition. The protocol: The Aurora assays described here are performed on two Caliper Life Sciences systems: the LC3000 and the Desktop Profiler. The RON kinase assays are performed on the Desktop Profiler only. These provide data on enzyme activity via measurement of the relative amounts of phosphorylated or unphosphorylated fluorescently labelled substrate peptide at the end of an enzymatic reaction. These different states of peptide are resolved by applying a potential difference across the sample. The presence of the charged phosphate group on the product (as opposed to the substrate) causes a different peptide mobility between the two peptides. This is visualized by excitation of the fluorescent label on the substrate and product peptides and represented as peaks within the analysis software.
In order to measure inhibitor activity of Aurora A inhibitors in the Caliper Life Sciences LC3000, a TTP Mosquito liquid handling instrument is used to place 0.25 ul of the appropriate concentration of inhibitor in 100% DMSO (for a dose response curve calculation) into each well of a 384-well plate. To this reaction components are added to a final volume of 25 ul: • 0.067 ng/ul GST-Aurora A (Carna Biosciences 05-101. N-terminal GST fusion with full length Aurora A (1-403 amino acids), accession number NP_940835.1). • 15 uM ATP (Fluka, 02055) • 1 mM DTT (Sigma, D0632) • 1 mM MgCl2 (Sigma, M1028) • 1 uM substrate peptide (sequence FITC-LRRASLG-(CONH2), synthesized by Tufts Peptide Synthesis service. • 100 mM HEPES pH 7.5 (Calbiochem, 391338) • 0.015% Brij-35 (Sigma, B4184)
The reaction is incubated for 90 min at 25 C, and then stopped by the addition of 70 ul of Stop buffer (100 mM HEPES pH 7.5, 0.015% Brij-35, 10 mM EDTA (Sigma, E7889)).
The plate is read on a Caliper LC3000 in an Off-Chip mobility shift assay format, using the following parameters for a 12-sipper chip: screening pressure −1.8 psi, upstream voltage −2700, downstream voltage −1000. These conditions cause unphosphorylated substrate and phosphorylated product peptide to resolve as separate peaks allowing direct measurement of percentage of conversion of substrate to product. The percent conversion can be plotted against concentration of inhibitor to produce a sigmoidal dose response curve, from which an IC50 can be calculated using XLFit for Microsoft Excel.
The Desktop Profiler utilizes the same priniciple as the LC3000 for calculating percentage conversion of a substrate to product. Caliper Life Sciences provides proprietary flash frozen pre-made 384 well plates containing selected kinases. Each column in the 384 well plate contains a particular selected kinase. A second plate, the ‘substrate plate’ contains a mix of fluorescently labeled peptide substrate and ATP. These are arranged in columns so that transfer for substrate plate to enzyme plate provides the correct enzyme with the correct substrate/ATP concentration. Compounds are added to a thawed enzyme plate in the desired format, in single concentrations. Reactions are initiated by transfer of the substrate/ATP mix from the substrate plate. The enzyme plate is incubated for 90 minutes at 25 C. The reaction is stopped by addition of 70 ul of Stop Buffer (100 mM HEPES pH 7.5, 0.015% Brij-35, 10 mM EDTA (Sigma, E7889)).
Reading of the plate in the Profiler is identical to the LC3000, and the ratio between substrate and product peaks provides the activity of the enzyme in that well. This is best represented by a plate heat map which colors each well by percent inhibition as compared to positive and negative controls (no inhibitors and no ATP respectively).
For `CN1Cc2c(Nc3ccc(NC(=O)c4ccccc4)cc3)ccnc2NC1=O` [Example 22, N-(4-(3-methyl-2-oxo-1,2,3,4-tetrahydropyrido [2,3-d]pyrimidin-5-ylamino)phenyl) benzamide], the half-inhibitory concentration (IC50) was 10 to 100 nM. Turning to `COc1ccc(CN2Cc3c(Nc4ccc(NC(=O)c5ccc(F)cc5C(F)(F)F)cc4F)ccnc3NC2=O)cc1` [Example 112, 4-fluoro-N-(3-fluoro-4-{[3-(4-methoxybenzyl)-2-oxo-1,2,3,4-tetrahydropyrido[2,3-d]pyrimidin-5-yl]amino}phenyl)-2-(trifluoromethyl)benzamide], the 50% inhibitory concentration (IC50) lay within 10 to 100 nM.

Turning to `O=C(Nc1ccc(Nc2ccnc3c2CN(CC(F)(F)F)C(=O)N3)cc1)c1ccccc1` [Example 37, N-(4-(2-oxo-3-(2,2,2-trifluoroethyl)-1,2,3,4-tetrahydropyrido[2,3-d]pyrimidin-5-ylmino)phenyl)benzamide], the IC50 was in the range of 10 to 100 nM. With `O=C1NCc2c(Nc3ccc(NC(=O)c4ccccc4F)cc3F)ccnc2N1` [Example 118, 2-fluoro-N-{3-fluoro-4-[(2-oxo-1,2,3,4-tetrahydropyrido[2,3-d]pyrimidin-5-yl)amino]phenyl}benzamide], the IC50 lay in the range of 10 to 100 nM.

Regarding `O=C(Nc1ccc(Nc2ccnc3c2C2OCCN2C(=O)N3)cc1)c1ccc(F)cc1C(F)(F)F` (stereo not shown) [Example 43, 4-fluoro-N-(4-(5-oxo-3,5,6,10b-tetrahydro-2H-oxazolo[3,2-c]pyrido [3,2-e]pyrimidin-10-ylamino)phenyl)-2-(trifluoromethyl) benzamide], the half-inhibitory concentration (IC50) was 100 to 1000 nM.

Regarding `COc1ccc(CN2Cc3c(Nc4ccc(NC(=O)Nc5ccc(F)cc5C(F)(F)F)cc4)ccnc3NC2=O)cc1` [Example 119, N-[4-fluoro-2-(trifluoromethyl)phenyl]-N′-(4-{[3-(4-methoxybenzyl)-2-oxo-1,2,3,4-tetrahydropyrido[2,3-d]pyrimidin-5-yl]amino}phenyl)urea], the half-inhibitory concentration (IC50) was 100 to 1000 nM. Consider `COc1cc(CNC(=O)c2ccc(-c3ccnc4c3CNC(=O)N4)s2)ccc1F` [Example 130, N-(4-fluoro-3-methoxybenzyl)-5-(2-oxo-1,2,3,4-tetrahydropyrido[2,3-d]pyrimidin-5-yl)thiophene-2-carboxamide], for which the IC50 lay within 10 to 100 nM. To `CN1Cc2c(Nc3ccc(NC(=O)c4ccccc4F)cc3F)ccnc2NC1=O` [Example 41, 2-fluoro-N-(3-fluoro-4-(3-methyl-2-oxo-1,2,3,4-tetrahydropyrido [2,3-d]pyrimidin-5-ylamino)phenyl) benzamide] belongs 10 to 100 nM; to `O=C(Nc1ccc(Nc2ccnc3c2CN(CCO)C(=O)N3)cc1)c1ccc(F)cc1C(F)(F)F` [Example 30, 4-fluoro-N-(4-(3-(2-hydroxyethyl)-2-oxo-1,2,3,4-tetrahydropyrido [2,3-d]pyrimidin-5-ylamino)phenyl)-2-(trifluoromethyl) benzamide], 10 to 100 nM; to `CN(C)CCN1Cc2c(Nc3ccc(NC(=O)c4ccc(F)cc4C(F)(F)F)cc3)ccnc2NC1=O` [Example 11, N-(4-(3-(2-(dimethylamino)ethyl)-2-oxo-1,2,3,4-tetrahydropyrido [2,3-d]pyrimidin-5-ylamino)phenyl)-4-fluoro-2-(trifluoromethyl) benzamide], 100 to 1000 nM. The figure for `COc1ccc(CN2Cc3c(Nc4ccc(NC(=O)c5cccc(F)c5)cc4F)ccnc3NC2=O)cc1` [Example 113, 3-fluoro-N-(3-fluoro-4-{[3-(4-methoxybenzyl)-2-oxo-1,2,3,4-tetrahydropyrido[2,3-d]pyrimidin-5-yl]amino}phenyl)benzamide] is 100 to 1000 nM; for `O=C(Nc1ccc(Nc2ccnc3c2CN(CCCO)C(=O)N3)cc1)c1ccc(F)cc1C(F)(F)F` [Example 32, 4-fluoro-N-(4-(3-(3-hydroxypropyl)-2-oxo-1,2,3,4-tetrahydropyrido [2,3-d]pyrimidin-5-ylamino)phenyl)-2-(trifluoromethyl) benzamide] it is less than 10 nM. The figure for `COc1ccc(CN2Cc3c(Nc4ccc(NC(=O)c5ccccc5F)cc4F)ccnc3NC2=O)cc1` [Example 114, 2-fluoro-N-(3-fluoro-4-{[3-(4-methoxybenzyl)-2-oxo-1,2,3,4-tetrahydropyrido[2,3-d]pyrimidin-5-yl]amino}phenyl)benzamide] is 100 to 1000 nM; for `O=C1NCc2c(Nc3ccc(NC(=O)c4cccc(F)c4)cc3F)ccnc2N1` [Example 117, 3-fluoro-N-{3-fluoro-4-[(2-oxo-1,2,3,4-tetrahydropyrido[2,3-d]pyrimidin-5-yl)amino]phenyl}benzamide] it is 10 to 100 nM. As to `O=C(Nc1ccc(Nc2ccnc3c2CN(CC(F)(F)F)C(=O)N3)c(F)c1)c1ccc(F)cc1C(F)(F)F` [Example 40, 4-fluoro-N-(3-fluoro-4-(2-oxo-3-(2,2,2-trifluoroethyl)-1,2,3,4-tetrahydropyrido[2,3-d]pyrimidin-5-ylamino)phenyl)-2-(trifluoromethyl) benzamide], the IC50 was less than 10 nM.

As for `COc1ccc(CN2Cc3c(-c4ccc(C(=O)NCc5ccc(F)c(OC)c5)s4)ccnc3NC2=O)cc1` [Example 129, N-(4-fluoro-3-methoxybenzyl)-5-[3-(4-methoxybenzyl)-2-oxo-1,2,3,4-tetrahydropyrido[2,3-d]pyrimidin-5-yl]thiophene-2-carboxamide], the concentration for half-maximal inhibition (IC50) was in the range of 10 to 100 nM. The figure for `COc1ccc(CN2Cc3c(Nc4ccc(NC(=O)c5ccc(F)cc5C(F)(F)F)cc4)ccnc3NC2=O)cc1` [Example 5, 4-fluoro-N-(4-(3-(4-methoxybenzyl)-2-oxo-1,2,3,4-tetrahydropyrido [2,3-d]pyrimidin-5-ylamino)phenyl)-2-(trifluoromethyl) benzamide] is 100 to 1000 nM.

As to `CN1Cc2c(Nc3ccc(NC(=O)CC4CC4)cc3)ccnc2NC1=O` [Example 23, 2-cyclopropyl-N-(4-(3-methyl-2-oxo-1,2,3,4-tetrahydropyrido [2,3-d]pyrimidin-5-ylamino)phenyl) acetamide], the half-inhibitory concentration (IC50) was in the range of 100 to 1000 nM. Consider `CN1Cc2c(Nc3ccc(NC(=O)c4cccc(F)c4F)c(F)c3)ccnc2NC1=O` [Example 39, 2,3-difluoro-N-(2-fluoro-4-(3-methyl-2-oxo-1,2,3,4-tetrahydropyrido [2,3-d]pyrimidin-5-ylamino)phenyl) benzamide], for which the IC50 lay within 10 to 100 nM. Regarding `O=C(CC1CC1)Nc1ccc(Nc2ccnc3c2CNC(=O)N3)cc1` [Example 108, 2-cyclopropyl-N-{4-[(2-oxo-1,2,3,4-tetrahydropyrido[2,3-d]pyrimidin-5-yl)amino]phenyl}acetamide], the half-maximal inhibitory concentration (IC50) lay in the range of 10 to 100 nM. As for `CN1Cc2c(Nc3ccc(NC(=O)c4ccc(F)cc4C(F)(F)F)cc3)ccnc2NC1=O` [Example 21, 4-fluoro-N-(4-(3-methyl-2-oxo-1,2,3,4-tetrahydropyrido [2,3-d]pyrimidin-5-ylamino)phenyl)-2-(trifluoromethyl) benzamide], the IC50 was less than 10 nM. In the case of `O=C(CC(F)(F)F)Nc1ccc(Nc2ccnc3c2CNC(=O)N3)cc1` [Example 107, 3,3,3-trifluoro-N-{4-[(2-oxo-1,2,3,4-tetrahydropyrido[2,3-d]pyrimidin-5-yl)amino]phenyl}propanamide], the IC50 lay in the range of 100 to 1000 nM.
